Experimental data as given in ChEMBL document CHEMBL4507292 (2021).

Tests used:
[1] = molecular target: Mitogen-activated protein kinase 13 (Homo sapiens) (UniProt O15264); settings: Compound concentration 1000.0 nM
[2] = molecular target: Calcium/calmodulin-dependent protein kinase kinase 2 (Homo sapiens) (UniProt Q96RR4); settings: Compound concentration 1000.0 nM
[3] = molecular target: Tyrosine-protein kinase Srms (Homo sapiens) (UniProt Q9H3Y6); settings: Compound concentration 1000.0 nM
[4] = molecular target: Ephrin type-A receptor 8 (Homo sapiens) (UniProt P29322); settings: Compound concentration 1000.0 nM
Chain of Ephrin type-A receptor 8 (Homo sapiens) (P29322 whole entry): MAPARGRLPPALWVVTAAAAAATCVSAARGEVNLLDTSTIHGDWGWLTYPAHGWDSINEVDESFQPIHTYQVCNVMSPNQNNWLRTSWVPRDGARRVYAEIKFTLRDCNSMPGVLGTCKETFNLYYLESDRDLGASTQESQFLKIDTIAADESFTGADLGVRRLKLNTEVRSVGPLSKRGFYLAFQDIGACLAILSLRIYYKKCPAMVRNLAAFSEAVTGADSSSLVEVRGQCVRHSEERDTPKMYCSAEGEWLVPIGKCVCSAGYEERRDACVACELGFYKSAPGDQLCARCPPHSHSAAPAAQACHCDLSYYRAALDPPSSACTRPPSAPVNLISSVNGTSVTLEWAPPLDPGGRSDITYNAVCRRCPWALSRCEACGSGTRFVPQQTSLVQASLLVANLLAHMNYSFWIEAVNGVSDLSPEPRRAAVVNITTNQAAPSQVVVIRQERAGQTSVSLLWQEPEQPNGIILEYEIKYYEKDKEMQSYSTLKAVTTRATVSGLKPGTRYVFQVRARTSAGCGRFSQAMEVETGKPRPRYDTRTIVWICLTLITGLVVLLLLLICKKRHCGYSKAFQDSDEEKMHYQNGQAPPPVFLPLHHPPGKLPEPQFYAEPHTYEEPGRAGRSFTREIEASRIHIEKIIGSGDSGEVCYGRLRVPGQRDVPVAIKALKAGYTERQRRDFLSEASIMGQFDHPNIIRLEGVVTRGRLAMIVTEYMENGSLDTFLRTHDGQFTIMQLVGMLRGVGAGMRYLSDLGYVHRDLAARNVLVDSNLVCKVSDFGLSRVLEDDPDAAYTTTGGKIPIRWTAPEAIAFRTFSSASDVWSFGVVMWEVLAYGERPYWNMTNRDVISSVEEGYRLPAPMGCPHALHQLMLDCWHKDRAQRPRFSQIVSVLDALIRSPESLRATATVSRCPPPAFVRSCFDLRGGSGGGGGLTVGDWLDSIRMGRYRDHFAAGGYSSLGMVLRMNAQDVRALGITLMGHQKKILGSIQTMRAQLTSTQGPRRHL

[5] = molecular target: MAP/microtubule affinity-regulating kinase 3 (Homo sapiens) (UniProt P27448); settings: Compound concentration 1000.0 nM
[6] = molecular target: Ribosomal protein S6 kinase alpha-5 (Homo sapiens) (UniProt O75582); settings: Compound concentration 1000.0 nM
[7] = molecular target: Receptor-type tyrosine-protein kinase FLT3 (Homo sapiens) (UniProt P36888); settings: Compound concentration 1000.0 nM
[8] = test system: Serine/threonine-protein kinase B-raf (Homo sapiens), P15056 [V600E]; settings: Compound concentration 1000.0 nM
[9] = molecular target: Serine/threonine-protein kinase PAK 4 (Homo sapiens) (UniProt O96013); settings: Compound concentration 1000.0 nM
[10] = molecular target: Dual specificity testis-specific protein kinase 1 (Homo sapiens) (UniProt Q15569); settings: Compound concentration 1000.0 nM
Chain of Dual specificity testis-specific protein kinase 1 (Homo sapiens) (Q15569 whole entry, looked up): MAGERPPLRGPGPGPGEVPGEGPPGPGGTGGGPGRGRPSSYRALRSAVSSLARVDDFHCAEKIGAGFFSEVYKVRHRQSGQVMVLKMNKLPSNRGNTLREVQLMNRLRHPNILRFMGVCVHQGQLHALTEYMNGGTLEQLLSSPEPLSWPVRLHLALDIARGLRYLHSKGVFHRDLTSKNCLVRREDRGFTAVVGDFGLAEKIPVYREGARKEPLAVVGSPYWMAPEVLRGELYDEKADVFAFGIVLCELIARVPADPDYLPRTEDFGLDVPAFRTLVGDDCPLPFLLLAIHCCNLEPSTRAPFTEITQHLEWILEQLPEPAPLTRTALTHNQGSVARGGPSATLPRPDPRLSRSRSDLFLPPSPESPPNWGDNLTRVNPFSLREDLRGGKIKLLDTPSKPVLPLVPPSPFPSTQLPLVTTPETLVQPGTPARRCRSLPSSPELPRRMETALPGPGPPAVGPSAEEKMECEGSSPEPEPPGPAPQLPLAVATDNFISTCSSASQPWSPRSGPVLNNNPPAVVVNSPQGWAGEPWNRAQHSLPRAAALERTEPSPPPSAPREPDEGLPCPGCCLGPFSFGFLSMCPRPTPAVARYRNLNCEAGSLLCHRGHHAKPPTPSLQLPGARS

[11] = molecular target: Mitogen-activated protein kinase kinase kinase kinase 1 (Homo sapiens) (UniProt Q92918); settings: Compound concentration 1000.0 nM
[12] = molecular target: Platelet-derived growth factor receptor beta (Homo sapiens) (UniProt P09619); settings: Compound concentration 1000.0 nM
[13] = molecular target: Non-receptor tyrosine-protein kinase TYK2 (Homo sapiens) (UniProt P29597); settings: Compound concentration 1000.0 nM
[14] = molecular target: Activin receptor type-1B (Homo sapiens) (UniProt P36896); settings: Compound concentration 1000.0 nM
[15] = molecular target: Eukaryotic translation initiation factor 2-alpha kinase 1 (Homo sapiens) (UniProt Q9BQI3); settings: Compound concentration 1000.0 nM
[16] = molecular target: Cyclin-dependent kinase 9 (Homo sapiens) (UniProt P50750); settings: Compound concentration 1000.0 nM
Chain of Cyclin-dependent kinase 9 (Homo sapiens) (P50750 whole entry): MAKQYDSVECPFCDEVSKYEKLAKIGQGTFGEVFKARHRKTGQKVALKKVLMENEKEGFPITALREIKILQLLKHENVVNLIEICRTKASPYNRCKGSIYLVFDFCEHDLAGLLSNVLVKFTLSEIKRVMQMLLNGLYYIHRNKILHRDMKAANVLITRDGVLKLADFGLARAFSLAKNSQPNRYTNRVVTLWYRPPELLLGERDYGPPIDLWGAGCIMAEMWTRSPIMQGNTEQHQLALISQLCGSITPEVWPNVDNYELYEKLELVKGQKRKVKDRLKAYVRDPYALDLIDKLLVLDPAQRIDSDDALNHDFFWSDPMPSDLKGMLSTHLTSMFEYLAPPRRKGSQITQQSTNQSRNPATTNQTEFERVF

[17] = molecular target: Ephrin type-B receptor 6 (Homo sapiens) (UniProt O15197); settings: Compound concentration 1000.0 nM
[18] = molecular target: Mitogen-activated protein kinase 8 (Homo sapiens) (UniProt P45983); settings: Compound concentration 1000.0 nM
[19] = test system: Receptor-type tyrosine-protein kinase FLT3 (Homo sapiens), P36888 [UNDEFINED MUTATION]; settings: Compound concentration 1000.0 nM
[20] = molecular target: NT-3 growth factor receptor (Homo sapiens) (UniProt Q16288); settings: Compound concentration 1000.0 nM
[21] = molecular target: Cyclin-dependent kinase-like 3 (Homo sapiens) (UniProt Q8IVW4); settings: Compound concentration 1000.0 nM
[22] = test system: Tyrosine-protein kinase ABL1 (Homo sapiens), P00519 [H396P]; settings: Compound concentration 1000.0 nM
[23] = molecular target: Proto-oncogene tyrosine-protein kinase ROS (Homo sapiens) (UniProt P08922); settings: Compound concentration 1000.0 nM
[24] = molecular target: Serine/threonine-protein kinase RIO2 (Homo sapiens) (UniProt Q9BVS4); settings: Compound concentration 1000.0 nM
[25] = molecular target: Aurora kinase B (Homo sapiens) (UniProt Q96GD4); settings: Compound concentration 1000.0 nM
[26] = molecular target: Serine/threonine-protein kinase PAK 5 (Homo sapiens) (UniProt Q9P286); settings: Compound concentration 1000.0 nM
[27] = molecular target: Homeodomain-interacting protein kinase 2 (Homo sapiens) (UniProt Q9H2X6); settings: Compound concentration 1000.0 nM
[28] = molecular target: Myosin light chain kinase (Homo sapiens) (UniProt Q32MK0); settings: Compound concentration 1000.0 nM
[29] = test system: Receptor-type tyrosine-protein kinase FLT3 (Homo sapiens), P36888 [R834Q]; settings: Compound concentration 1000.0 nM
[30] = molecular target: Tyrosine-protein kinase Lck (Homo sapiens) (UniProt P06239); settings: Compound concentration 1000.0 nM
[31] = molecular target: Phosphatidylinositol 4-phosphate 3-kinase C2 domain-containing subunit beta (Homo sapiens) (UniProt O00750); settings: Compound concentration 1000.0 nM
Chain of Phosphatidylinositol 4-phosphate 3-kinase C2 domain-containing subunit beta (Homo sapiens) (O00750 whole entry, the tested form may be a part): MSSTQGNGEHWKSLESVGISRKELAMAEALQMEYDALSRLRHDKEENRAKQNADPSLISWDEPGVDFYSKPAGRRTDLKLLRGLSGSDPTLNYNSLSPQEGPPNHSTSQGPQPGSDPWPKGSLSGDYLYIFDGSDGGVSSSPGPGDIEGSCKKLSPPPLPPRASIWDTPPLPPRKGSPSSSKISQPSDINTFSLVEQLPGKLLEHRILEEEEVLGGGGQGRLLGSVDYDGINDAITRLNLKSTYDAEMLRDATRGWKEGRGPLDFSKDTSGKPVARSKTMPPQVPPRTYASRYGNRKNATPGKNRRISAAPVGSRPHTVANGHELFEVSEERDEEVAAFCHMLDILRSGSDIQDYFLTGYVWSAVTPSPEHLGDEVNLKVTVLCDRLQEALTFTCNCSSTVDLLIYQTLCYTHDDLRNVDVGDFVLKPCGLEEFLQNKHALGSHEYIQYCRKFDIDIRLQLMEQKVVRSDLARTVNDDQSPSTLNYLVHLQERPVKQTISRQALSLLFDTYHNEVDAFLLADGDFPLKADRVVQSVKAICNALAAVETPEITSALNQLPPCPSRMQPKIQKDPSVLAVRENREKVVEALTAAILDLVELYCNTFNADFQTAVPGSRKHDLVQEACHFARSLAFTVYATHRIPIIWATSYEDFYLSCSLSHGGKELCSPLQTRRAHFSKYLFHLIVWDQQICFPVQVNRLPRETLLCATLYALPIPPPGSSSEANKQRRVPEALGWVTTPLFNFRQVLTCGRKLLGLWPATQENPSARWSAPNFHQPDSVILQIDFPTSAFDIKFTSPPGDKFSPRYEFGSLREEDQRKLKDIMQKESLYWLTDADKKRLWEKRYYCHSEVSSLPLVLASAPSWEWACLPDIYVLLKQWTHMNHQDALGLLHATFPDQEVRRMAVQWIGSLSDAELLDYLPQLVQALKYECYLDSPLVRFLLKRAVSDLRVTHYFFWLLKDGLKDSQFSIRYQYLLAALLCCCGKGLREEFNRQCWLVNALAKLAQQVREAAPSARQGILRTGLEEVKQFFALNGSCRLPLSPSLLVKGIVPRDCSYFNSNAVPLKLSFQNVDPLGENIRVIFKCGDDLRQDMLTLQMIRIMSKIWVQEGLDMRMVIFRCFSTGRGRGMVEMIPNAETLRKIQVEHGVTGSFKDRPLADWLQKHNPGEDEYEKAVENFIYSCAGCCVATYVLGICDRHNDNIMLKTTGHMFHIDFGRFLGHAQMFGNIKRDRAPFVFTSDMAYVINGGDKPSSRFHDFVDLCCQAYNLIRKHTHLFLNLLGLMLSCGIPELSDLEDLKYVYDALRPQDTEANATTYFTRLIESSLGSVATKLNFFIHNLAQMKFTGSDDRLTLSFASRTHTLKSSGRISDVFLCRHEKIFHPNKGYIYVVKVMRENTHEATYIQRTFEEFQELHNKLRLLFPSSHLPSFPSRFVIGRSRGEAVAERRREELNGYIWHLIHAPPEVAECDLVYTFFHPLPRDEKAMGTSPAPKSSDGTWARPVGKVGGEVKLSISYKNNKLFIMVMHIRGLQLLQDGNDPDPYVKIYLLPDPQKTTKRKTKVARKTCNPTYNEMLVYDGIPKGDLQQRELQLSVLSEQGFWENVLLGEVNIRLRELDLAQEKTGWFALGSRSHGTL

[32] = molecular target: 5'-AMP-activated protein kinase catalytic subunit alpha-1 (Homo sapiens) (UniProt Q13131); settings: Compound concentration 1000.0 nM
[33] = molecular target: Cyclin-dependent kinase 11B (Homo sapiens) (UniProt P21127); settings: Compound concentration 1000.0 nM
[34] = molecular target: Mitogen-activated protein kinase 10 (Homo sapiens) (UniProt P53779); settings: Compound concentration 1000.0 nM
[35] = molecular target: Serine/threonine-protein kinase PAK 2 (Homo sapiens) (UniProt Q13177); settings: Compound concentration 1000.0 nM
[36] = molecular target: Dual specificity mitogen-activated protein kinase kinase 2 (Homo sapiens) (UniProt P36507); settings: Compound concentration 1000.0 nM
[37] = molecular target: Phosphatidylinositol 4,5-bisphosphate 3-kinase catalytic subunit alpha isoform (Homo sapiens) (UniProt P42336); settings: Compound concentration 1000.0 nM
[38] = molecular target: Receptor tyrosine-protein kinase erbB-4 (Homo sapiens) (UniProt Q15303); settings: Compound concentration 1000.0 nM
[39] = molecular target: Alpha-2B adrenergic receptor (Homo sapiens, UniProt P18089); assay: GPCRScan assay: inhibition of Alpha2B; parameters: radioligand conc. used [nm] 1.5 – 2.0, parental cells HEKT
Chain of Alpha-2B adrenergic receptor (P18089 whole entry): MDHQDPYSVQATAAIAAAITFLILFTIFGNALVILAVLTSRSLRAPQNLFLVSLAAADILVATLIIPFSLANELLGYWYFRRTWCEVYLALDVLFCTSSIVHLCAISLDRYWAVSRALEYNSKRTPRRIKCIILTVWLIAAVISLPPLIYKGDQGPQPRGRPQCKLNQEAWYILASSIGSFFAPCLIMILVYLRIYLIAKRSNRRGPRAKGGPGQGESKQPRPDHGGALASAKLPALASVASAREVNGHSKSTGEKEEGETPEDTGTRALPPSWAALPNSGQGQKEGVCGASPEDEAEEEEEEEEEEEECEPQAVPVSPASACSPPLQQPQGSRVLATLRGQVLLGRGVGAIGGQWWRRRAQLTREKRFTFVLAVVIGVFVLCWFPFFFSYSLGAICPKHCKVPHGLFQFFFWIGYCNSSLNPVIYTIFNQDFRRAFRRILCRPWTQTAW

[40] = molecular target: Atypical kinase COQ8B, mitochondrial (Homo sapiens) (UniProt Q96D53); settings: Compound concentration 1000.0 nM
[41] = molecular target: Serine/threonine-protein kinase Chk2 (Homo sapiens) (UniProt O96017); settings: Compound concentration 1000.0 nM
[42] = test system: Tyrosine-protein kinase ABL1 (Homo sapiens), P00519 [M351T]; settings: Compound concentration 1000.0 nM
[43] = molecular target: 5-hydroxytryptamine receptor 6 (Homo sapiens) (UniProt P50406); settings: Compound concentration 10.0 uM
[44] = molecular target: Macrophage colony-stimulating factor 1 receptor (Homo sapiens) (UniProt P07333); settings: Compound concentration 1000.0 nM
Chain of Macrophage colony-stimulating factor 1 receptor (Homo sapiens) (P07333 whole entry): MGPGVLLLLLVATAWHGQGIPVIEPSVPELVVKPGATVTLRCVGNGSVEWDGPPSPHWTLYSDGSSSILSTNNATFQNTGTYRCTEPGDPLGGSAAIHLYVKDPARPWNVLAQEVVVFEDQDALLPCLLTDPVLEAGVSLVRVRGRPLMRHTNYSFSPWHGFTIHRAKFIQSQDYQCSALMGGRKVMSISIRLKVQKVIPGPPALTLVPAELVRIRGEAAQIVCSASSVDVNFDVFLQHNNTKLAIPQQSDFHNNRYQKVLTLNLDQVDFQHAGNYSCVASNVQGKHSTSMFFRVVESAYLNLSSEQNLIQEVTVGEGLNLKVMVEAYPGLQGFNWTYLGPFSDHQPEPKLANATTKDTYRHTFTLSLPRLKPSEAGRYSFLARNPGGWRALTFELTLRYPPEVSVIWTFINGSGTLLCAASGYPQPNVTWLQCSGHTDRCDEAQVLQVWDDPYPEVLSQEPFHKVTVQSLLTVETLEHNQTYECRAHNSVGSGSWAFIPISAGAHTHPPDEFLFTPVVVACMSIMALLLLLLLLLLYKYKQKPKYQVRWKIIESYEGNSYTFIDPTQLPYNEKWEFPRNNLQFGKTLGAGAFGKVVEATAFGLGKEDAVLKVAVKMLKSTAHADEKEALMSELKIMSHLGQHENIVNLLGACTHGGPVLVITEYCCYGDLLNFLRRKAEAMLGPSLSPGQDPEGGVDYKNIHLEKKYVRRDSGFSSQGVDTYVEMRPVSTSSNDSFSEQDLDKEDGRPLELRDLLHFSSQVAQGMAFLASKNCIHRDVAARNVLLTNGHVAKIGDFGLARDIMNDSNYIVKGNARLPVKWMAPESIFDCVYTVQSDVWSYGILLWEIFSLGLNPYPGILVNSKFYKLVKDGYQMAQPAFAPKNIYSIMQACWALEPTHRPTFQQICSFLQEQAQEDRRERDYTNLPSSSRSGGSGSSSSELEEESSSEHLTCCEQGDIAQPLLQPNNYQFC

[45] = test system: Mast/stem cell growth factor receptor Kit (Homo sapiens), P10721 [D816V]; settings: Compound concentration 1000.0 nM

Cc1c(C(=O)O)cc(-c2ccc(C3CCNCC3)cc2)c2ccc(-c3ccc(C(F)(F)F)cc3)cc12 [PPTN-NC]
residual activity [1]: 96%
residual activity [2]: 100%
residual activity [3]: 100%
residual activity [4]: 100%
residual activity [5]: 100%
residual activity [6]: 100%
residual activity [7]: 100%
residual activity [8]: 100%
residual activity [9]: 100%
residual activity [10]: 93%
residual activity [11]: 90%
residual activity [12]: 100%
residual activity [13]: 100%
residual activity [14]: 100%
residual activity [15]: 77%
residual activity [16]: 100%
residual activity [17]: 100%
residual activity [18]: 100%
residual activity [19]: 95%
residual activity [20]: 100%
residual activity [21]: 100%
residual activity [22]: 72%
residual activity [23]: 100%
residual activity [24]: 100%
residual activity [25]: 100%
residual activity [26]: 98%
residual activity [27]: 100%
residual activity [28]: 94%
residual activity [29]: 100%
residual activity [30]: 100%
residual activity [31]: 100%
residual activity [32]: 98%
residual activity [33]: 100%
residual activity [34]: 100%
residual activity [35]: 100%
residual activity [36]: 100%
residual activity [37]: 100%
residual activity [38]: 100%
Ki [39]: 1.84 µM
residual activity [40]: 100%
residual activity [41]: 100%
residual activity [42]: 100%
inhibition [43]: 13.5%
residual activity [44]: 100%
residual activity [45]: 100%

O=C(O)c1cc(-c2ccc(C3CCNCC3)cc2)c2ccc(-c3ccc(C(F)(F)F)cc3)cc2c1 [PPTN]
residual activity [1]: 97%
residual activity [2]: 100%
residual activity [3]: 100%
residual activity [4]: 100%
residual activity [5]: 100%
residual activity [6]: 100%
residual activity [7]: 90%
residual activity [8]: 100%
residual activity [9]: 100%
residual activity [10]: 100%
residual activity [11]: 96%
residual activity [12]: 100%
residual activity [13]: 100%
residual activity [14]: 100%
residual activity [15]: 98%
residual activity [16]: 100%
residual activity [17]: 96%
residual activity [18]: 100%
residual activity [19]: 100%
residual activity [20]: 100%
residual activity [21]: 94%
residual activity [22]: 62%
residual activity [23]: 100%
residual activity [24]: 100%
residual activity [25]: 100%
residual activity [26]: 100%
residual activity [27]: 100%
residual activity [28]: 100%
residual activity [29]: 100%
residual activity [30]: 100%
residual activity [31]: 100%
residual activity [32]: 100%
residual activity [33]: 100%
residual activity [34]: 100%
residual activity [35]: 100%
residual activity [36]: 90%
residual activity [37]: 100%
residual activity [38]: 100%
Ki [39]: 2.56 µM
residual activity [40]: 100%
residual activity [41]: 100%
residual activity [42]: 100%
inhibition [43]: 5.62%
residual activity [44]: 100%
residual activity [45]: 100%
